Measured values: ChEMBL document CHEMBL1138518 (J Med Chem, 2009)

Columns and labels:
[1] = test system: SK-BR-3; experiment: Cytotoxicity against human SKBR3 cells after 72 hrs by celltiter-glo assay; assay type: functional, cell-based
[2] = target: Heat shock protein HSP 90-beta (Homo sapiens, UniProt P08238); experiment: Binding affinity to human recombinant HSP90
[3] = Chemical stability assessed as half life at pH 7.75; assay type: physicochemical; details: buffer
[4] = test system: CCRF-CEM; experiment: Cytotoxicity against human paclitaxel-resistant CCRF-CEM cells after 72 hrs by celltiter-96 aqueous one solution assay; assay type: functional, cell-based
[5] = test system: CCRF-CEM; experiment: Cytotoxicity against human CCRF-CEM cells after 72 hrs by celltiter-96 aqueous one solution assay; assay type: functional, cell-based
[6] = test system: A549; experiment: Cytotoxicity against human A549 cells after 72 hrs by celltiter-glo assay; assay type: functional, cell-based; details: A549, 72 h
[7] = test system: MCF7; experiment: Cytotoxicity against human MCF7 cells after 72 hrs by celltiter-glo assay; assay type: functional, cell-based; details: MCF7, 72 h
[8] = test system: SK-OV-3; experiment: Cytotoxicity against human SKOV3 cells after 72 hrs by celltiter-glo assay; assay type: functional, cell-based; details: SK-OV-3, 72 h

Sequence of Heat shock protein HSP 90-beta (P08238 whole entry): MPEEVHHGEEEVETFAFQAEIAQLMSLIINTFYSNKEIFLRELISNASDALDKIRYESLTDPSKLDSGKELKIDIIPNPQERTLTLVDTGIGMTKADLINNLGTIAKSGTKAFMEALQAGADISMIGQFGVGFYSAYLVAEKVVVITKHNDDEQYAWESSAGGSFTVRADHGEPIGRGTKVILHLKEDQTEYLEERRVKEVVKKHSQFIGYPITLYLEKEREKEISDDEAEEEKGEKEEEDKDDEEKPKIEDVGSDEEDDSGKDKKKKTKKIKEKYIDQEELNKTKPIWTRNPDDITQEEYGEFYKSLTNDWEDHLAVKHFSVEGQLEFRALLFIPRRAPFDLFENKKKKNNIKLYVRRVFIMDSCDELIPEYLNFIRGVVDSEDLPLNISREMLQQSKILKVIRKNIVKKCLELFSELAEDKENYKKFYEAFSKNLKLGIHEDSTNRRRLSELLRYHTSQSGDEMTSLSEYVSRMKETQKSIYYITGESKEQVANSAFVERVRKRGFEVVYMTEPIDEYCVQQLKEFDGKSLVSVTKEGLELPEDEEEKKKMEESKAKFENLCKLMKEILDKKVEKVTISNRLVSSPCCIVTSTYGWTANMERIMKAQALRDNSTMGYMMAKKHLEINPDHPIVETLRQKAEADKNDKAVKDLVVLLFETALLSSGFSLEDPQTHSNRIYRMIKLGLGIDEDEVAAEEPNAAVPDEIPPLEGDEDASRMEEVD

Row | Kd [2] | Compound | IC50 ([1]; Homo sapiens, SK-BR-3, 72 h) | also measured
1 | 2.6 µM | CO[C@H]1C[C@H](C)CC2=C(NCCF)C(=O)C=C(NC(=O)/C(C)=C/C=C\[C@H](OC)[C@@H](OC(N)=O)/C(C)=C/[C@H](C)C1=O)C2=O (stereo in doubt) | 0.17 µM | 
2 | > 25 µM | COC1=C2C[C@@H](C)C[C@H](OC)[C@H](OC(=O)CN)[C@@H](C)/C=C(\C)[C@H](OC(N)=O)[C@@H](OC)/C=C\C=C(/C)C(=O)NC(=CC1=O)C2=O (stereo in doubt) | 0.48 µM | half-life [3]: 95 h
3 | > 10 µM | CO[C@H]1C[C@H](C)CC2=C(NCCN(C)C)C(=O)C=C(NC(=O)/C(C)=C/C=C\[C@H](OC)[C@@H](OC(N)=O)/C(C)=C/[C@H](C)/C1=N\O)C2=O (stereo in doubt) | 0.095 µM | 
4 | 2.8 µM | C=CCNC1=C2C[C@@H](C)C[C@H](OC)[C@H](OC)[C@@H](C)/C=C(\C)[C@H](OC(N)=O)[C@@H](OC)/C=C\C=C(/C)C(=O)NC(=CC1=O)C2=O (stereo in doubt) | 0.28 µM | IC50 [4]: 3.5 µM; IC50 [5]: 2.5 µM; IC50 [6]: 0.36 µM; IC50 [7]: 0.76 µM; IC50 [8]: 1.3 µM
5 | 2.9 µM | C=CCO[C@H]1[C@@H](OC)C[C@H](C)CC2=C(N3CCC3)C(=O)C=C(NC(=O)/C(C)=C/C=C\[C@H](OC)[C@@H](OC(N)=O)/C(C)=C/[C@@H]1C)C2=O | 0.39 µM | 
6 | > 25 µM | C=CCNC1=C2C[C@@H](C)C[C@H](OC)[C@H](OC(=O)CN)[C@@H](C)/C=C(\C)[C@H](OC(N)=O)[C@@H](OC)/C=C\C=C(/C)C(=O)NC(=CC1=O)C2=O (stereo in doubt) | 0.35 µM | half-life [3]: 78 h
7 | > 10 µM | C=CCNC1=C2C[C@@H](C)C[C@H](OC)/C(=N/O)[C@@H](C)/C=C(\C)[C@H](OC(N)=O)[C@@H](OC)/C=C\C=C(/C)C(=O)NC(=CC1=O)C2=O | 0.35 µM | 
8 |  | COC1=C2C[C@@H](C)C[C@H](OC)[C@H](O)[C@@H](C)/C=C(\C)[C@H](OC(N)=O)[C@@H](OC)/C=C\C=C(/C)C(=O)NC(=CC1=O)C2=O [GELDANAMYCIN] |  | IC50 ([1]; sk-br-3): 0.041 µM
9 |  | CO[C@H]1/C=C\C=C(/C)C(=O)NC2=CC(=O)C(NCCN(C)C)=C(C[C@@H](C)C[C@H](OC)[C@H](OC(=O)NN)[C@@H](C)/C=C(\C)[C@@H]1OC(N)=O)C2=O | > 1 µM | IC50 [2]: 0.005 µM
10 | > 25 µM | CO[C@H]1C[C@H](C)CC2=C(NCCN(C)C)C(=O)C=C(NC(=O)/C(C)=C/C=C\[C@H](OC)[C@@H](OC(N)=O)/C(C)=C/[C@H](C)/C1=N\OCC(=O)O)C2=O (stereo in doubt) | 2.7 µM | 
11 | 1.8 µM | CO[C@H]1C[C@H](C)CC2=C(NCCN(C)C)C(=O)C=C(NC(=O)/C(C)=C/C=C\[C@H](OC)[C@@H](OC(N)=O)/C(C)=C/[C@H](C)C1=O)C2=O (stereo in doubt) | 0.1 µM | 
12 | > 100 µM | CO[C@H]1C[C@H](C)CC2=C(NCCN(C)C)C(=O)C=C(NC(=O)/C(C)=C/C=C\[C@H](OC)[C@@H](OC(N)=O)/C(C)=C/[C@H](C)/C1=N\OCCN(C)C)C2=O (stereo in doubt) | 2.5 µM | 
13 | 6.4 µM | CO[C@H]1C[C@H](C)CC2=C(N3CCC3)C(=O)C=C(NC(=O)/C(C)=C/C=C\[C@H](OC)[C@@H](OC(N)=O)/C(C)=C/[C@H](C)C1=O)C2=O (stereo in doubt) | 0.26 µM | 
14 |  | C=CCNC1=C2C[C@@H](C)C[C@H](OC)[C@H](O)[C@@H](C)/C=C(\C)[C@H](OC(N)=O)[C@@H](OC)/C=C\C=C(/C)C(=O)NC(=CC1=O)C2=O [TANESPIMYCIN] | 0.033 µM | 
15 | > 100 µM | C=CCO/N=C1/[C@@H](OC)C[C@H](C)CC2=C(NCCN(C)C)C(=O)C=C(NC(=O)/C(C)=C/C=C\[C@H](OC)[C@@H](OC(N)=O)/C(C)=C/[C@@H]1C)C2=O (stereo in doubt) | 0.4 µM | 
16 | > 100 µM | CO/N=C1/[C@@H](OC)C[C@H](C)CC2=C(NCCN(C)C)C(=O)C=C(NC(=O)/C(C)=C/C=C\[C@H](OC)[C@@H](OC(N)=O)/C(C)=C/[C@@H]1C)C2=O (stereo in doubt) | 0.55 µM | 
17 | 3.3 µM | C=CCNC1=C2C[C@@H](C)C[C@H](OC)C(=O)[C@@H](C)/C=C(\C)[C@H](OC(N)=O)[C@@H](OC)/C=C\C=C(/C)C(=O)NC(=CC1=O)C2=O (stereo in doubt) | 0.45 µM | 
18 | > 100 µM | CO[C@H]1C[C@H](C)CC2=C(NCCN(C)C)C(=O)C=C(NC(=O)/C(C)=C/C=C\[C@H](OC)[C@@H](OC(N)=O)/C(C)=C/[C@H](C)/C1=N\OCc1ccccc1)C2=O (stereo in doubt) | 0.48 µM | 
19 |  | CO[C@H]1/C=C\C=C(/C)C(=O)NC2=CC(=O)C(NCCN(C)C)=C(C[C@@H](C)C[C@H](OC)[C@H](O)[C@@H](C)/C=C(\C)[C@@H]1OC(N)=O)C2=O (stereo in doubt) [ALVESPIMYCIN] | 0.024 µM | IC50 [4]: 2.5 µM; IC50 [5]: 0.54 µM; IC50 [6]: 0.068 µM; IC50 [7]: 0.23 µM; IC50 [8]: 0.22 µM
20 | 0.8 µM | CO[C@H]1/C=C\C=C(/C)C(=O)NC2=CC(=O)C(NCCc3c[nH]cn3)=C(C[C@@H](C)C[C@H](OC)[C@H](O)[C@@H](C)/C=C(\C)[C@@H]1OC(N)=O)C2=O (stereo in doubt) | 0.098 µM | 
21 | > 25 µM | CO[C@H]1C[C@H](C)CC2=C(N3CCC3)C(=O)C=C(NC(=O)/C(C)=C/C=C\[C@H](OC)[C@@H](OC(N)=O)/C(C)=C/[C@H](C)/C1=N\O)C2=O | 0.31 µM | 
22 | 0.4 µM | CO[C@H]1/C=C\C=C(/C)C(=O)NC2=CC(=O)C(NCCN3CCC3)=C(C[C@@H](C)C[C@H](OC)[C@H](O)[C@@H](C)/C=C(\C)[C@@H]1OC(N)=O)C2=O (stereo in doubt) | 0.026 µM | 
23 | 0.8 µM | CO[C@H]1[C@@H](OC)C[C@H](C)CC2=C(NCCN(C)C)C(=O)C=C(NC(=O)/C(C)=C/C=C\[C@H](OC)[C@@H](OC(N)=O)/C(C)=C/[C@@H]1C)C2=O | 0.011 µM | IC50 [4]: 0.39 µM; IC50 [5]: 0.058 µM; IC50 [6]: 0.023 µM; IC50 [7]: 0.05 µM; IC50 [8]: 0.043 µM

Row | Compound | Kd [2] | IC50 ([1]; Homo sapiens, SK-BR-3, 72 h) | also measured
24 | CO[C@H]1/C=C\C=C(/C)C(=O)NC2=CC(=O)C(NCCN3CCCC3)=C(C[C@@H](C)C[C@H](OC)[C@H](O)[C@@H](C)/C=C(\C)[C@@H]1OC(N)=O)C2=O (stereo in doubt) | 0.4 µM | 0.07 µM | 
25 | CO[C@H]1C[C@H](C)CC2=C(NCCF)C(=O)C=C(NC(=O)/C(C)=C/C=C\[C@H](OC)[C@@H](OC(N)=O)/C(C)=C/[C@H](C)/C1=N\O)C2=O | > 25 µM | > 1 µM | 
26 | CO[C@H]1[C@@H](OC)C[C@H](C)CC2=C(NCCF)C(=O)C=C(NC(=O)/C(C)=C/C=C\[C@H](OC)[C@@H](OC(N)=O)/C(C)=C/[C@@H]1C)C2=O (stereo in doubt) | 2.3 µM | 0.13 µM | IC50 [4]: 2.7 µM; IC50 [5]: 0.96 µM; IC50 [6]: 0.067 µM; IC50 [7]: 0.058 µM; IC50 [8]: 0.46 µM
27 | CO[C@H]1/C=C\C=C(/C)C(=O)NC2=CC(=O)C(NCCF)=C(C[C@@H](C)C[C@H](OC)[C@H](O)[C@@H](C)/C=C(\C)[C@@H]1OC(N)=O)C2=O (stereo in doubt) | 0.8 µM | 0.017 µM | 
28 | CO[C@H]1/C=C\C=C(/C)C(=O)NC2=CC(=O)C(N3CCC3)=C(C[C@@H](C)C[C@H](OC)[C@H](O)[C@@H](C)/C=C(\C)[C@@H]1OC(N)=O)C2=O (stereo in doubt) | 1.4 µM | 0.024 µM | 
29 | CO[C@H]1[C@@H](OC)C[C@H](C)CC2=C(N3CCC3)C(=O)C=C(NC(=O)/C(C)=C/C=C\[C@H](OC)[C@@H](OC(N)=O)/C(C)=C/[C@@H]1C)C2=O (stereo in doubt) | 4 µM | 0.024 µM | IC50 [4]: 2.5 µM; IC50 [5]: 0.42 µM; IC50 [6]: 0.029 µM; IC50 [7]: 0.063 µM; IC50 [8]: 0.11 µM
30 | CO[C@H]1[C@@H](OC)C[C@H](C)CC2=C(NCCN3CCC3)C(=O)C=C(NC(=O)/C(C)=C/C=C\[C@H](OC)[C@@H](OC(N)=O)/C(C)=C/[C@@H]1C)C2=O (stereo in doubt) | 1 µM | 0.13 µM | IC50 [4]: 0.51 µM; IC50 [5]: 0.085 µM; IC50 [6]: 0.026 µM; IC50 [7]: 0.051 µM; IC50 [8]: 0.065 µM
31 | CO[C@H]1[C@@H](OC)C[C@H](C)CC2=C(NCCc3c[nH]cn3)C(=O)C=C(NC(=O)/C(C)=C/C=C\[C@H](OC)[C@@H](OC(N)=O)/C(C)=C/[C@@H]1C)C2=O (stereo in doubt) | 2 µM | 0.06 µM | IC50 [4]: 3 µM; IC50 [5]: 0.51 µM; IC50 [6]: 0.42 µM; IC50 [7]: 0.16 µM; IC50 [8]: 0.32 µM
32 | CO[C@H]1[C@@H](OC)C[C@H](C)CC2=C(NCCN3CCCC3)C(=O)C=C(NC(=O)/C(C)=C/C=C\[C@H](OC)[C@@H](OC(N)=O)/C(C)=C/[C@@H]1C)C2=O (stereo in doubt) | 1 µM | 0.16 µM | IC50 [4]: 0.52 µM; IC50 [5]: 0.16 µM; IC50 [6]: 0.062 µM; IC50 [7]: 0.076 µM; IC50 [8]: 0.069 µM
33 | CO[C@H]1[C@@H](OC)C[C@H](C)CC2=C(N)C(=O)C=C(NC(=O)/C(C)=C/C=C\[C@H](OC)[C@@H](OC(N)=O)/C(C)=C/[C@@H]1C)C2=O | 0.32 µM | 0.084 µM | IC50 [4]: 0.85 µM; IC50 [5]: 0.25 µM; IC50 [6]: 0.037 µM; IC50 [7]: 0.35 µM; IC50 [8]: 0.2 µM
34 | CO[C@H]1/C=C\C=C(/C)C(=O)NC2=CC(=O)C(NCCF)=C(C[C@@H](C)C[C@H](OC)[C@H](OC(=O)CN)[C@@H](C)/C=C(\C)[C@@H]1OC(N)=O)C2=O (stereo in doubt) | > 25 µM | 0.11 µM | 
35 | COC1=C2C[C@@H](C)C[C@H](OC)[C@H](OC)[C@@H](C)/C=C(\C)[C@H](OC(N)=O)[C@@H](OC)/C=C\C=C(/C)C(=O)NC(=CC1=O)C2=O | 0.49 µM | 0.0091 µM | 
36 | CO[C@H]1/C=C\C=C(/C)C(=O)NC2=CC(=O)C(N)=C(C[C@@H](C)C[C@H](OC)[C@H](O)[C@@H](C)/C=C(\C)[C@@H]1OC(N)=O)C2=O (stereo in doubt) | 0.1 µM | 0.033 µM | 
